Source: patent publication US4510136A (priority 1983, dated 1985)

What was measured:
[1] = system: Puccinia recondita var. tritici; experiment: Wheat leaf rust control on sprayed wheat seedlings (Example 79); format: in vivo; conditions: Puccinia recondita, 168 h; for pest or weed control at 100 ppm: 100 ppm spray, day before inoculation
Summary of the method: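 Wheat seedlings were sprayed to run-off with 100 ppm compound suspended in water with 6% acetone and 250 ppm TREM 014 surfactant. Next day they were inoculated with Puccinia recondita var. tritici spores and held 24 h at saturated humidity, 20°. Rust pustules were rated after a further 7 days in a growth room.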

Erysiphe cichoracearum = experiment: Cucumber powdery mildew control on sprayed cucumber seedlings (Example 80); format: in vivo; conditions: Golovinomyces cichoracearum, 168 h; for pest or weed control at 100 ppm: 100 ppm spray, day before inoculation
Venturia inaequalis = experiment: Apple scab control on sprayed apple seedlings (Example 82); format: in vivo; conditions: Venturia inaequalis; for pest or weed control at 100 ppm: 100 ppm spray, day before inoculation
Helminthosporium maydis = experiment: Southern corn leaf blight control on sprayed corn seedlings (Example 83); format: in vivo; conditions: Bipolaris maydis, 192 h, 100 ppm spray, day before inoculation
Summary of the method: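 Compounds in 6% acetone at 100 ppm in water with 250 ppm TREM 014 surfactant, sprayed to run-off on corn seedlings; next day inoculated with spore suspension. 24 h at saturated humidity and 20°, then 7 days in growth room before disease rating; phytotoxicity scored as growth reduction.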

Cercospora arachidicola = experiment: Peanut early leafspot control on sprayed peanut seedlings (Example 84); format: in vivo; conditions: Mycosphaerella arachidis, 360 h, 100 ppm spray, day before inoculation; read-out: % Control Peanut Easly Leafspot
Pyricularia oryzae = experiment: whole plant or invertebrate; format: in vivo; conditions: Pyricularia oryzae, 168 h, read-out: % Control of Rice Blast, 100 ppm spray, day before inoculation
Phytophthora infestans = experiment: whole plant or invertebrate; format: in vivo; conditions: Phytophthora infestans, in Solanum lycopersicum, 168 h, read-out: % Control of Tomato Late Blight, 100 ppm spray, day before inoculation
Pythium aphanadermatum [2] = experiment: Pythium control on cotton, seed coating (Example 91); format: in vivo; conditions: 168 h; for pest or weed control at 2 g/kg seed: 2 gm/kg seed
Summary of the method: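 Cotton seeds coated with formulated compound at 2 gm/kg seed, air dried, and planted in soil amended with Pythium aphanadermatum, sand and corn meal. Held 1 week at room temperature before disease rating.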

Pythium aphanadermatum [3] = experiment: Pythium control on corn, seed coating (Example 92); format: in vivo; conditions: 504 h, 2 gm/kg seed
Experimental: Several compounds of the previous examples were incorporated into a proprietary formulation and used to coat corn seeds at a rate of 2 gm/kg seed. After being thoroughly coated, the seeds were allowed to air dry at room temperature. The seeds were then planted into soil amended with a mixture of the fungus Pythium aphanadermatum, sand, and corn meal at a rate sufficient to kill most untreated seeds. The seeds were held at 49° F. for 2 weeks and then at 70° F. for 1 additional week. After this time disease ratings were made.

corn seedlings = experiment: Phytotoxicity on corn seedlings (Example 83); format: in vivo; design: key: G = growth reduction; H = hormonal effects; conditions: 100 ppm spray
Experimental: The compounds of the previous examples were again dissolved in acetone in an amount equal to 6% of the final volume and then suspended at a concentration of 100 ppm in purified water containing 250 ppm of the surfactant TREM 014 (polyhydric alcohol esters). These suspensions were sprayed to the point of run-off on corn seedlings. The following day, the plants were inoculated with a spore suspension of Helminthosporium maydis, causal agent of southern corn leaf blight, and incubated in a saturated humidity chamber at 20° for 24 hours and then in a growth room for an additional 7 days, when disease ratings were made. Treated plants from successful treatments had few or no lesions while the untreated plants had numerous lesions on each leaf. Phytotoxicity expressed as growth reduction was observed on some of the plants in association with disease control.

Uromyces phaseoli = experiment: Bean rust control on sprayed bean seedlings (Example 85); format: in vivo
Experimental: This suspension was sprayed to the point of run-off on bean seedlings. The following day, the plants were inoculated with a spore suspension of the fungus Uromyces phaseoli, causal agent of bean rust, and incubated in a saturated humidity chamber at 20° for 24 hours and then in a greenhouse for 7 days. Disease ratings were then made. Treated plants from successful treatments had few or no rust pustules in contrast to untreated plants which were covered with rust pustules.

Monilinia fructicola = experiment: Stone fruit brown rot control on dipped canned peach halves (Example 86); conditions: 120 h, 100 ppm dip, percent growth inhibition of colonies after five days
Summary of the method: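 Canned peach halves were dipped 3 min in a 100 ppm compound suspension (5% acetone, 700 ppm TREM 014 surfactant in water) and air-dried. Each was inoculated with two Monilinia fructicola mycelium pieces and incubated 5 days in sterile containers. Colony radii were measured, and percent control was expressed as growth inhibition versus untreated peaches.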

Rhizoctonia solani = experiment: Rice sheath blight control on sprayed rice seedlings (Example 87); format: in vivo; conditions: Rhizoctonia solani, 168 h, 100 ppm spray, day before inoculation
Summary of the method: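 Rice seedlings were sprayed to run-off with 100 ppm compound suspended in water with 6% acetone and 250 ppm TREM 014 surfactant. They were inoculated next day with bran plus R. solani mycelium. Sheath blight was rated after 7 days in a growth room.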

5 Phytophthora species = format: cell-based; conditions: 200.0 ppm in V-8 agar, 22° C., 6 days
cucumber seedlings = experiment: Phytotoxicity on cucumber seedlings (Example 80); format: in vivo; design: key: G = growth reduction; H = hormonal effects; conditions: 100 ppm spray
Summary of the method: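 Cucumber seedlings sprayed to run-off with 100 ppm compound suspension (6% acetone, 250 ppm TREM 014 surfactant), inoculated next day with Erysiphe cichoracearum spores, then held 7 days in a growth room before disease rating. Phytotoxicity scored as growth reduction or hormonal effects.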

Erysiphe graminis = experiment: Barley powdery mildew control on sprayed barley seedlings (Example 81); format: in vivo; conditions: Blumeria graminis, 168 h; for pest or weed control at 100 ppm: 100 ppm spray, day before inoculation
Experimental: The compounds of the previous examples were again dissolved in acetone in an amount equal to 6% of the final volume and then suspended at a concentration of 100 ppm in purified water containing 250 ppm of the surfactant TREM 014 (polyhydric alcohol esters). These suspensions were sprayed to the point of run-off on barley seedlings. The following day, the plants were inoculated with a spore suspension of the fungus Erysiphe graminis, causal agent of barley powdery mildew, and incubated in growth room for 7 days. Disease ratings were then made. Treated plants from successful treatments had little or no powdery mildew in contrast to untreated plants which were covered with powdery mildew.

apple seedlings = experiment: Phytotoxicity on apple seedlings (Example 82); format: in vivo; design: key: G = growth reduction; C = chlorosis; B = burn
Experimental: These suspensions were sprayed to the point of run-off on apple seedlings. The following day, the plants were inoculated with a spore suspension of the fungus Venturia inaequalis, causal agent of apple scab, and incubated in a saturated humidity chamber at 20° for 24 hours and then in a growth room for an additional 10-12 days. Treated plants from successful treatments had fewer apple scab lesions when compared to untreated plants which were covered with scab lesions. Phytotoxicity expressed as growth reduction was observed on some of the plants in association with disease control.

bean seedlings = experiment: Phytotoxicity on bean seedlings (Example 85); format: in vivo; design: key: G = growth reduction; H = hormonal effects; conditions: 80 ppm spray

| SMILES | pest or weed control at 100 ppm [1] | pest or weed control at 100 ppm (Erysiphe cichoracearum) | pest or weed control at 100 ppm (Venturia inaequalis) | pest or weed control at 100 ppm (Helminthosporium maydis) | pest or weed control at 100 ppm (Cercospora arachidicola) | pest or weed control at 100 ppm (Pyricularia oryzae) | pest or weed control at 100 ppm (Phytophthora infestans) | % Control Bean Rust (Uromyces phaseoli; applied at 16 ppm) | inhibition of growth at 100 µg/mL (Monilinia fructicola) | pest or weed control at 100 ppm (Rhizoctonia solani) | No. of 5 Phytophthora species controlled in vitro (5 Phytophthora species) | pest or weed control at 2 g/kg seed (Pythium aphanadermatum [2]) | Phytotoxicity on cucumber (cucumber seedlings) | also measured |
| --- | --- | --- | --- | --- | --- | --- | --- | --- | --- | --- | --- | --- | --- | --- |
| C[Si](C)(Cn1cncn1)c1ccc(Cl)cc1 [(4-Chlorophenyl)dimethyl(1H-1,2,4-triazol-1-ylmethyl)silane] | 100% | 100% | 100% | 0% | 90% | 0% | 0% | – | – | – | – | – | – | pest or weed control at 0.5 g/kg seed (Pythium aphanadermatum [2]; 0.5 gm/kg seed): 53%; pest or weed control at 2 g/kg seed (Pythium aphanadermatum [3]): 8%; Phytotoxicity on corn (corn seedlings): G |
| C[Si](Cn1cncn1)(c1ccc(F)cc1)c1ccc(F)cc1 [bis(4-Fluorophenyl)methyl(1H,-1,2,4-triazol-1-ylmethyl)silane] | 0% | 100% | 100% | 100% | 100% | 100% | 0% | 98% | 100% | 80% | 0 | 0% | G | pest or weed control at 2 g/kg seed (Pythium aphanadermatum [3]): 0% |
| CCCCCCCCCCCC[Si](C)(C)Cn1cncn1 [Dodecyl(dimethyl)(1H-1,2,4-triazol-1-ylmethyl)silane] | – | – | – | 0% | – | – | – | – | – | – | – | – | – | pest or weed control at 200 ppm ([1]; applied at 200 ppm): 100%; pest or weed control at 400 ppm (Erysiphe cichoracearum; applied at 400 ppm): 60%; pest or weed control at 200 ppm (Erysiphe graminis; applied at 200 ppm): 100%; pest or weed control at 400 ppm (Venturia inaequalis; applied at 400 ppm): 40%; Phytotoxicity on apple (apple seedlings; applied at 400 ppm): B |
| C[Si](C)(Cn1cncn1)c1ccc(-c2ccccc2)cc1 [(1,1'-Biphenyl-4-yl)dimethyl(1H--1,2,4-triazol-1-ylmethyl)si] [(1,1'-Biphenyl-4-yl)dimethyl(1H-1,2,4-triazol-1-ylmethyl)silane] | – | – | – | – | – | – | – | – | – | – | 0 | – | – | % Control Bean Rust (Uromyces phaseoli; 80 ppm spray, day before inoculation): 100% |
| C[Si](C)(Cn1cncn1)c1ccc(Cl)cc1Cl [(2,4-Dichlorophenyl)dimethyl(1H-1,2,4-triazol-1-ylmethyl)silane] | 90% | 100% | 100% | 90% | 100% | 0% | 0% | – | 100% | 0% | 0 | 0% | H | pest or weed control at 100 ppm (Erysiphe graminis): 100%; Phytotoxicity on bean (bean seedlings): G |
| C[Si](Cn1cncn1)(c1ccc(Cl)cc1)c1ccc(Cl)cc1 [bis(4-Chlorophenyl)methyl(1H,-1,2,4-triazol-1-ylmethyl)silane] | 90% | 100% | 100% | 80% | 100% | 90% | 0% | – | 95% | 0% | 0 | 0% | – | pest or weed control at 100 ppm (Erysiphe graminis): 100%; Phytotoxicity on bean (bean seedlings): G |
| C[Si](C)(Cn1cncn1)c1ccc(F)cc1 [Dimethyl(4-fluorophenyl)(1H-1,2,4-triazol-1-ylmethyl)silane] | 100% | 100% | 80% | 90% | 50% | 0% | 0% | – | – | 0% | – | – | G | Phytotoxicity on apple (apple seedlings; 100 ppm spray): C |
| C[Si](Cn1cncn1)(c1ccccc1)c1ccc(F)cc1 (centres unmarked) [(4-Fluorophenyl)methyl(phenyl)(1H-1,2,4-triazol-1-ylmethyl)silane] | 90% | 100% | 100% | 90% | 100% | 0% | 0% | 100% | 90% | 80% | 0 | – | – | – |
| C[Si](Cn1cncn1)(c1ccccc1)c1ccc(Cl)cc1 (centres unmarked) [(4-Chlorophenyl)methyl(phenyl)(1H-1,2,4-triazol-1-ylmethyl)silane] | 100% | 100% | 100% | 90% | 100% | 100% | 0% | 98% | 70% | 90% | 0 | – | G | – |
